Source: PMC7830771 (Molecular cancer therapeutics, 2017)
pEC50: −log10 of the molar value.

Legend:
[1] = target: ABCB1 (P-glycoprotein, MDR1) (Homo sapiens, UniProt P08183); test: vanadate-sensitive ATPase assay, crude membranes of High Five cells; assay type: biochemical
ABCC10 (MRP7) = target: T1, ABCC10 (MRP7) (Homo sapiens, UniProt Q5T3U5); test: [3H]-paclitaxel efflux, HEK293/ABCC10 versus HEK293/pcDNA3.[…] cells; assay type: cell-based; conditions: labelled compound; 0.1 μmol/L; 37°C
T1 sequence (Q5T3U5 1-1492): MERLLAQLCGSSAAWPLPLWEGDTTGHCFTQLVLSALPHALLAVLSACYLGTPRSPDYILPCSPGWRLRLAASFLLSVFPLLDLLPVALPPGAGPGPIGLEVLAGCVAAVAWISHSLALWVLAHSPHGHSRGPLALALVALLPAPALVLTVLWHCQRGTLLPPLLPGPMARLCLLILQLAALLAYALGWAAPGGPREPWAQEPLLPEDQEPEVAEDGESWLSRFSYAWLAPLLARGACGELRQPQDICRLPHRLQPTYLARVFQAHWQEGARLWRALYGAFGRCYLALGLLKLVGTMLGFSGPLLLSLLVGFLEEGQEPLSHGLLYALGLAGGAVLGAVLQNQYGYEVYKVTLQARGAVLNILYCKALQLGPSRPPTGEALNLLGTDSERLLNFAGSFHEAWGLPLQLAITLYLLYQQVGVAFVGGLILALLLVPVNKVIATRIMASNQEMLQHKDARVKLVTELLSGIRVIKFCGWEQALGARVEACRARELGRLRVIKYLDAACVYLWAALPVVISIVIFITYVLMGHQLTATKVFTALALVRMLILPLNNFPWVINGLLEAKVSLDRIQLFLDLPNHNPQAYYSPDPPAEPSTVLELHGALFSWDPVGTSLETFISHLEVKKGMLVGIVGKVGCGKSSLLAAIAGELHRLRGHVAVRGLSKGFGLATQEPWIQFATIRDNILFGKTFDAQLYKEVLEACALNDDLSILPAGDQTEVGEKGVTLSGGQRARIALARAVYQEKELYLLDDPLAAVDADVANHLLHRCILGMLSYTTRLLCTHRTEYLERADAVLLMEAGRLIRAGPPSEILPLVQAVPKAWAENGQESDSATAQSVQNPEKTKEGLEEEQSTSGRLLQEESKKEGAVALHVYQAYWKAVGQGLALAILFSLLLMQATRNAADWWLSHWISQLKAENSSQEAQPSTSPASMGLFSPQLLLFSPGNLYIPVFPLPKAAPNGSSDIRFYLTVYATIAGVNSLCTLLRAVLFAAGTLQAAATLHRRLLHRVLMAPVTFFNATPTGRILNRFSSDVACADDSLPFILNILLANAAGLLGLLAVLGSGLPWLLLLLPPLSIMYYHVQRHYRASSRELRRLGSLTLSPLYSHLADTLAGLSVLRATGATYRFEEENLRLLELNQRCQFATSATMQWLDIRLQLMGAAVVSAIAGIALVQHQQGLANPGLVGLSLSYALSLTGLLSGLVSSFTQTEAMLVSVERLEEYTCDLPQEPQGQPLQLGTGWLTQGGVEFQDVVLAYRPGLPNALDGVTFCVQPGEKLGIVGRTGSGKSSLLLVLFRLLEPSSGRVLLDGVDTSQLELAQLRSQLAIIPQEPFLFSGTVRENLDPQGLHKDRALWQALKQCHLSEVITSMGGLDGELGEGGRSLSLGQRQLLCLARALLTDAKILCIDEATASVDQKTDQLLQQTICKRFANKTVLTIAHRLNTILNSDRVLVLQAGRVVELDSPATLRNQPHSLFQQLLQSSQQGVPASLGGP

ABCB1 (P-glycoprotein, MDR1), sequence (P08183 whole entry): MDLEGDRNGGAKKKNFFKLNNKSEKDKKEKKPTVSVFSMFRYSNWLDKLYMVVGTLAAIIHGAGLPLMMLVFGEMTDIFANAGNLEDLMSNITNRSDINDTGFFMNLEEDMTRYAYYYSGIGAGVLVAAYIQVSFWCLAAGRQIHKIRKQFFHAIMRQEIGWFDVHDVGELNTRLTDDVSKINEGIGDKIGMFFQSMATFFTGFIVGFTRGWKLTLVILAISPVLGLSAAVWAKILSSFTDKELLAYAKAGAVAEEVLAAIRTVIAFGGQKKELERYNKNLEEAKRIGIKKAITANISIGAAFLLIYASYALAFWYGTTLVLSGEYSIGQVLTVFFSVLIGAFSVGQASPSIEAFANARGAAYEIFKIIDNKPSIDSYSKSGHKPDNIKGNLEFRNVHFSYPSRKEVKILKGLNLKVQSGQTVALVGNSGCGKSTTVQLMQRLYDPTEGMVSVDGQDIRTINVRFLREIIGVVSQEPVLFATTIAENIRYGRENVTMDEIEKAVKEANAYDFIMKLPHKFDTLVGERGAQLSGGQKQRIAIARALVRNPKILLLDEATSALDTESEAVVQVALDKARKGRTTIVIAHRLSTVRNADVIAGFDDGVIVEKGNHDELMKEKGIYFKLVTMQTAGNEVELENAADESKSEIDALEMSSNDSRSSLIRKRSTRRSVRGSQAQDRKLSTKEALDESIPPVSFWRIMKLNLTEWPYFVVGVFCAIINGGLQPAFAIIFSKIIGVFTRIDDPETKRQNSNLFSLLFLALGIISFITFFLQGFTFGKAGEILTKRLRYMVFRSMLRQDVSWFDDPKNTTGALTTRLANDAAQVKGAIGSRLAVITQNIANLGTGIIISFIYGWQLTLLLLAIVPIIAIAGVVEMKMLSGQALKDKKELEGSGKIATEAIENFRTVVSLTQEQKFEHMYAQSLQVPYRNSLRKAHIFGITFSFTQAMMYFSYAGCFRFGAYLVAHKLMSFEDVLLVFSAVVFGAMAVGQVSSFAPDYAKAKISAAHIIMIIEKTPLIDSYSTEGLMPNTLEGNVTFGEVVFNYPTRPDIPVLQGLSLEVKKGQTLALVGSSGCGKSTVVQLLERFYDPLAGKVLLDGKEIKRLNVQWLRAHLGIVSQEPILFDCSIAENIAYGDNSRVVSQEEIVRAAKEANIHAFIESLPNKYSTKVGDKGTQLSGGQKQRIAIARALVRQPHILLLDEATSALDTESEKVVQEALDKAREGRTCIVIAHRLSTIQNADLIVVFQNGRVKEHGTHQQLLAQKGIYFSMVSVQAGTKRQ

## C=CC(=O)N1CCC[C@@H](n2nc(-c3ccc(Oc4ccccc4)cc3)c3c(N)ncnc32)C1 [ibrutinib]
[1]
  pEC50: 6.19

## CC(=O)O[C@H]1C(=O)[C@@]2(C)[C@H]([C@H](OC(=O)c3ccccc3)[C@]3(O)C[C@H](OC(=O)[C@H](O)[C@@H](NC(=O)c4ccccc4)c4ccccc4)C(C)=C1C3(C)C)[C@]1(OC(C)=O)CO[C@@H]1C[C@@H]2O [paclitaxel]
ABCC10 (MRP7)
  [3H]-paclitaxel efflux, HEK293/ABCC10 versus HEK293/pcDNA3.1 cells: KB-C2 and HEK293/ABCC10 cells efflux more [^3H]-paclitaxel out of the cells
